{
  "source": "patent US8008258B2",
  "about": "“Cop 1 for treatment of inflammatory bowel diseases” (Yeda Research and Development Co. Ltd., priority 2003, dated 2011)",
  "key": {"[1]": {"tested_on": "TNBS-induced colitis", "test": "TNBS-induced colitis in SJL/J mice, various GA treatment modes", "type": "in vivo", "parameters": "key to Macroscopic scoring of colon damage: Ulceration (max 10): 0 = completely normal, 10 = most severe ulceration; key to Macroscopic scoring of colon damage: Adhesion (max 2): adhesion score, 0 to 2; key to Macroscopic scoring of colon damage: Diarrhea (max 1): diarrhea score, 0 to 1; key to Macroscopic scoring of colon damage: Thickness (max 1): thickness score, 0 to 1", "conditions": "for Decrease in the total histological score: statistically insignificant; for Macroscopic scoring of colon damage: Adhesion (max 2) / Macroscopic scoring of colon damage: Diarrhea (max 1) / Macroscopic scoring of colon damage: Thickness (max 1) / Macroscopic scoring of colon damage: Total Score (max 14) / Macroscopic scoring of colon damage: Ulceration (max 10): scoring 5 days after disease induction", "description": "Induction of cholitis in mice. TNBS-colitis was induced by rectal instillation of 2,4,6-trinitrobenzene sulfonic acid 5% (w/v), mixed with an equal volume of ethanol, into anesthetized mice (100 μl/mouse). Each treatment group included 6-12 mice. Mice that died before day 4 were considered as treatment casualties and were not taken into consideration.\nAssessment of colitis. Weight changes and survival were monitored daily. Five to eight days following TNBS instillation, mice were sacrificed and macroscopic as well as microscopic colonic damage was evaluated.\nMacroscopic colonic scoring. Gross colonic damage was graded according to Reuter et al. (1996), using the combined values of the four standard macroscopic parameters: degree of colonic ulcerations (scale from 0—completely normal, to 10—most severe); intestinal and peritoneal adhesions (0 to 2); diarrhea (0 to 1); and thickness (0 to 1). The total score is the arithmetic sum of the four scores. The evaluation was performed in a blind procedure.\nMicroscopic scoring. Proximal, medial, and distal portions of colon were fixed in 10% phosphate-buffered formalin. Paraffin-embedded sections were stained with hematoxylin and eosin. The degree of histological damage and inflammation was graded according to Elson et al. (1996) using the combined values of the four microscopic parameters: extent (scale from 0—completely normal, to 2—involving more than one segment); inflammation (0—none to 3—severe); damage (0 to 3—severe transmural); and regeneration (0—complete re-eptihelization to 3—none). The total score is the arithmetic sum of the four scores. The evaluation was performed in a blind procedure.\nOral treatment—250 μg/day in PBS, fed by gastric intubation with an 18-gauge stainless steel feeding needle. Unless otherwise stated, feedings were performed on days-7, -5, -3, -1, 0, 2, 4 and 6, relative to the day of TNBS instillation. […]\nTo explore whether the beneficial effect of GA on TNBS-induced colitis is restricted to oral administration in the BALB/c strain or represents a more general effect, we studied the ability of GA administered by different routes and dosages to inhibit TNBS-induced colitis in two additional strains of mice."}, "[2]": {"tested_on": "TGF-β secretion by spleen and MLN cells", "test": "TGF-β secretion by spleen and MLN cells (ELISA)", "type": "cell-based", "conditions": "colitis-induced BALB/c mice treated with GA; anti-CD3 stimulation", "description": "FIGS. 6A-6B show the effect of GA treatment on TGF-β secretion by lymphocytes of TNBS-induced BALB/c mice. Cells of spleen or mesenteric lymph nodes (MLN) from normal mice, colitis-induced mice, and colitis-induced mice treated with GA were cultured either with GA (50 μg/ml) (FIG. 6A) or immobilized anti-CD3 (5 μg/ml) (FIG. 6B). After 72 hours, supernatants from six culture wells were pooled and TGF-β was measured by ELISA in duplicates. Results are expressed as TGF-β concentration (pg/ml±1 SD) and represent one of two similar experiments, using pooled cells from 3-5 mice in each group. # Indicates significant decrease in TGF-β in colitic mice in comparison to normal mice. * Indicates significant increase in TGF-β induced by GA treatment in comparison to untreated colitis induced mice.\nReactivity assays. Spleens and mesenteric lymph nodes (MLN) cells (0.5×10^6 cell/well) were cultured with either GA (50 μg/ml), colon extract (200 μg/ml), immobilized anti-CD3 (5 μg/ml), or PBS control, in a final volume of 250 μl/well (6 wells for each antigen). For proliferation assay, cells were cultured in RPMI 1640 with 10% FCS, pulsed with 1 μCi of [3H] thymidine after 48 h incubation, and harvested 12 h later. […]"}, "[3]": {"tested_on": "TNF-α secretion by spleen and MLN cells", "test": "TNF-α secretion by spleen and MLN cells (ELISA)", "type": "cell-based, mice", "description": "FIGS. 5A-5C show the effect of GA on TNF-α secretion in different mouse strains. The responses of normal mice, colitis-induced mice, and colitis-induced mice treated with GA orally or parenterally daily are compared in the BALB/c (FIG. 5A), (SJL/JxBALB/c)F1 (FIG. 5B), and SJL/J (FIG. 5C) strains. Cells from spleens and mesenteric lymph nodes (MLN) were cultured, 7 days after disease induction, with immobilized anti-CD3 (5 μg/ml). After 24 hours, supernatants from six culture wells were pooled and TNF-α was measured by ELISA in duplicates. Results are expressed as TNF-α concentration (pg/ml±SD) and represent one of two similar experiments, using pooled cells from 3-5 mice in each group. # Indicates significant increase in TNF-α in colitic mice in comparison to normal mice. * Indicates significant decrease in TNF-α induced by GA treatment in comparison to untreated colitis induced mice.\nReactivity assays. Spleens and mesenteric lymph nodes (MLN) cells (0.5×10^6 cell/well) were cultured with either GA (50 μg/ml), colon extract (200 μg/ml), immobilized anti-CD3 (5 μg/ml), or PBS control, in a final volume of 250 μl/well (6 wells for each antigen). For proliferation assay, cells were cultured in RPMI 1640 with 10% FCS, pulsed with 1 μCi of [3H] thymidine after 48 h incubation, and harvested 12 h later. For cytokine (TNF-α and TGF-β) assay, cells were cultured in serum-free medium (DCCM-1), supernatants were collected after 72 h, and tested for the cytokines by ELISA using mAbs pairs (R&D Systems, Minneapollis, Minn.) according to the manufacturer's instruction."}, "[4]": {"conditions": "GA injected daily (from day −7), 2.5 mg/mouse SC"}, "[5]": {"conditions": "GA oral every other day (from day −7), 0.25 mg, 8 feedings"}},
  "note": "Marks after values point to notes of the source that are not given here.",
  "data": [
    {"substance": "glatiramer acetate [GA]", "values": [
      {"measurement": "Reduction in macroscopic score versus untreated control", "setting": "[1]; GA daily injections from day −7", "value": 2.7, "unit": "fold"},
      {"measurement": "Mortality (succumbed)", "setting": "[1]; daily injection of GA", "value": 8, "unit": "%"},
      {"measurement": "Inhibition of weight loss caused by TNBS colitis", "setting": "[1]; daily-injected mice", "value": "major significant inhibition of weight loss"},
      {"measurement": "Decrease in the total histological score", "setting": "[1]; feeding", "value": 0.5, "unit": "points"},
      {"measurement": "Decrease in the total histological score", "setting": "[1]; injection", "value": 1.8, "unit": "points"},
      {"measurement": "Decrease in the total macroscopic score versus untreated mice", "setting": "[1]; oral treatment with GA", "value": 1.7, "unit": "Points"},
      {"measurement": "Mortality rate", "setting": "[1]; oral treatment with GA, by day 5", "value": 18, "unit": "%"},
      {"measurement": "Inhibition of weight loss caused by TNBS colitis", "setting": "[1]; orally-treated mice", "value": "modest, statistically insignificant, inhibition of weight loss"},
      {"measurement": "Macroscopic scoring of colon damage: Adhesion (max 2)", "setting": "[1]; [4]", "value": 1.2},
      {"measurement": "Macroscopic scoring of colon damage: Diarrhea (max 1)", "setting": "[1]; [4]", "value": 0.5},
      {"measurement": "Macroscopic scoring of colon damage: Thickness (max 1)", "setting": "[1]; [4]", "value": 0.5},
      {"measurement": "Macroscopic scoring of colon damage: Total Score (max 14)", "setting": "[1]; [4]", "value": "5.7*"},
      {"measurement": "Macroscopic scoring of colon damage: Ulceration (max 10)", "setting": "[1]; [4]", "value": 3.5},
      {"measurement": "Macroscopic scoring of colon damage: Adhesion (max 2)", "setting": "[1]; [5]", "value": 1.8},
      {"measurement": "Macroscopic scoring of colon damage: Diarrhea (max 1)", "setting": "[1]; [5]", "value": 0.9},
      {"measurement": "Macroscopic scoring of colon damage: Thickness (max 1)", "setting": "[1]; [5]", "value": 0.9},
      {"measurement": "Macroscopic scoring of colon damage: Total Score (max 14)", "setting": "[1]; [5]", "value": 10.7},
      {"measurement": "Macroscopic scoring of colon damage: Ulceration (max 10)", "setting": "[1]; [5]", "value": 7.1},
      {"measurement": "TGF-β secretion in the MLN relative to the secretion of normal mice", "setting": "[2]", "value": 2.2, "unit": "folds"},
      {"measurement": "Effect of GA treatment on TNF-α levels", "setting": "[3]; SJL/J mice parenterally treated daily with GA", "value": "drastic decrease in TNF-α levels"},
      {"measurement": "Effect of GA treatment on TNF-α secretion in response to anti-CD3", "setting": "[3]; all strains, both spleens and MLN, all instances except MLN of SJL/J mice treated orally with GA", "value": "substantial reduction in TNF-α"},
      {"measurement": "TNF-α secretion on in vitro stimulation", "setting": "[3]; in vitro stimulation of cells by GA (50 μg/ml)", "value": "did not result in secretion of TNF-α"}
    ]}
  ]
}
